Assay results reported in patent US7001907B2, “Peptide-containing α-ketoamide cysteine and serine protease inhibitors” (Cephaon, Inc., priority 1997, dated 2006).

Each molecule was assayed against T1, Recombinant human calpain I (Homo sapiens, UniProt P07384) (assay: Inhibition of cysteine protease activity: calpain I, Succ-Leu-Tyr-MNA substrate hydrolysis). Conditions: Table 2, linear α-ketoamides.
T1 construct: made in house
T1 sequence (P07384 1-714): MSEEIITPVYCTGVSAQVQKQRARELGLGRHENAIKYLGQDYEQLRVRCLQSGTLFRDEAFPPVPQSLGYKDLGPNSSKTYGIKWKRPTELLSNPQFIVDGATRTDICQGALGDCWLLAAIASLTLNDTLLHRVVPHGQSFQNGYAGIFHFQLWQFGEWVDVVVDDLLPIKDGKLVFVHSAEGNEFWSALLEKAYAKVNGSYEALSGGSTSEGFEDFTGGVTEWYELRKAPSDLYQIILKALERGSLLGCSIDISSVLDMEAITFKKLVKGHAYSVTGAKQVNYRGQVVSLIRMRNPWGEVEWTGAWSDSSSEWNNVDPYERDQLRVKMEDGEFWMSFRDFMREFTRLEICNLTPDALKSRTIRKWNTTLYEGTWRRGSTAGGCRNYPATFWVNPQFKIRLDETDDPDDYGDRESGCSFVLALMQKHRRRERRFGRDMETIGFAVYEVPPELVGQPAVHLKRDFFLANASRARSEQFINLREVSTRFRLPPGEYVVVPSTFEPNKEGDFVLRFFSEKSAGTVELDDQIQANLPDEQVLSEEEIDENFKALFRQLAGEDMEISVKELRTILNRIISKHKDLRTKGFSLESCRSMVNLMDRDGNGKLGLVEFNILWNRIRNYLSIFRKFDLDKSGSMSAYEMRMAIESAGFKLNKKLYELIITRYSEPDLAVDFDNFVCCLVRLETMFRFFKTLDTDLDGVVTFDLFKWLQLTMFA
T1 sequence (P04632 1-268 partner): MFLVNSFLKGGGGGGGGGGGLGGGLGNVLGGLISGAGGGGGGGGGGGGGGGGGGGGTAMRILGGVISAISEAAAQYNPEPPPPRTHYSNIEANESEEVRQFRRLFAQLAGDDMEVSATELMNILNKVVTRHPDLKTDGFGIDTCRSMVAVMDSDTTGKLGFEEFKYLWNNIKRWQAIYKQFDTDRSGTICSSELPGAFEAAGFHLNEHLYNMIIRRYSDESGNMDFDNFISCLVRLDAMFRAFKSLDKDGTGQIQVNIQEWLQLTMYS
Format: biochemical
Experimental: To evaluate inhibitory activity, stock solutions (40 times concentrated) of each compound to be tested were prepared in 100% anhydrous DMSO and 5 μl of each inhibitor preparation were aliquoted into each of three wells of a 96-well plate. Recombinant human calpain I, prepared by the method of Meyer et al. (Biochem. J. 1996, 314: 511–519; incorporated herein by reference in its entirety), was diluted into assay buffer (i.e., 50 mM Tris, 50 mM NaCl, 1 mM EDTA, 1 mM EGTA, and 5 mM β-mercaptoethanol, pH 7.5, including 0.2 mM Succ-Leu-Tyr-MNA), and 175 μl was aliquoted into the same wells containing the independent inhibitor stocks as well as to positive control wells containing 5 μl DMSO, but no compound. To start the reaction, 20 μl of 50 mM CaCl2 in assay buffer was added to all wells of the plate, excepting three, which were used as background signal baseline controls. Substrate hydrolysis was monitored every 5 minutes for a total of 30 minutes. Substrate hydrolysis in the absence of inhibitor was linear for up to 15 minutes.
Inhibition of calpain I activity was calculated as the percent decrease in the rate of substrate hydrolysis in the presence of inhibitor relative to the rate in its absence. Comparison between the inhibited and control rates was made within the linear range for substrate hydrolysis. The IC50s of inhibitors (concentration yielding 50% inhibition) were determined from the percent decrease in rates of substrate hydrolysis in the presence of five to seven different concentrations of the test compound. The results were plotted as percent inhibition versus log inhibitor concentration, and the IC50 was calculated by fitting the data to the four-parameter logistic equation shown below using the program GraphPad Prism (GraphPad Software, Inc., San Diego, Calif.). y=d+[(a−d)/(1+(x/c)^b)]
The parameters a, b, c, and d are defined as follows: a is % inhibition in the absence of inhibitor, b is the slope, c is the IC50, and d is the % inhibition at an infinite concentration of inhibitor.

Row | IC50 [nM] | Compound
1 | 25 | Cn1nc(-c2ccc(S(=O)(=O)NCCNC(=O)C(=O)C(Cc3ccccc3)NC(=O)C(COCc3ccccc3)NS(C)(=O)=O)s2)cc1C(F)(F)F (mixture of isomers) [Compound 34]
2 | 14 | CS(=O)(=O)NC(COCc1ccccc1)C(=O)NC(Cc1ccccc1)C(=O)C(=O)NCCNS(=O)(=O)c1ccc(-c2ccccc2)s1 (mixture of isomers) [Compound 42]
3 | 31 | CS(=O)(=O)NC(COCc1ccccc1)C(=O)NC(Cc1ccccc1)C(=O)C(=O)NCCNS(=O)(=O)c1ccc(-c2cccc(N)c2)s1 (mixture of isomers) [Compound 44]
4 | 16 | CS(=O)(=O)N[C@H](COCc1ccccc1)C(=O)N[C@@H](Cc1ccccc1)C(=O)C(=O)NCCNS(=O)(=O)c1ccccc1 [Compound 9]
5 | 11 | CC(C)C[C@H](NC(=O)OCc1ccccc1)C(=O)N[C@@H](Cc1ccccc1)C(=O)C(=O)NCCNS(=O)(=O)c1ccccc1 [Compound 17]
6 | 42 | CS(=O)(=O)N[C@H](COCc1ccccc1)C(=O)N[C@@H](Cc1ccccc1)C(=O)C(=O)NCCNS(=O)(=O)c1ccc(N)cc1 [Compound 22]
7 | 14 | CS(=O)(=O)N[C@H](COCc1ccccc1)C(=O)N[C@@H](Cc1ccccc1)C(=O)C(=O)NCCNS(=O)(=O)c1ccc(-c2ccccc2)s1 [Compound 29]
8 | 29 | CS(=O)(=O)N[C@H](COCc1ccccc1)C(=O)N[C@@H](Cc1ccccc1)C(=O)C(=O)NCCNS(=O)(=O)c1cccnc1 [Compound 31]
9 | 10 | CS(=O)(=O)N[C@H](COCc1ccccc1)C(=O)N[C@@H](Cc1ccccc1)C(=O)C(=O)NCCNS(=O)(=O)c1ccc(-c2ccon2)s1 [Compound 32]
10 | 17 | CSc1nccc(-c2ccc(S(=O)(=O)NCCNC(=O)C(=O)[C@H](Cc3ccccc3)NC(=O)[C@@H](COCc3ccccc3)NS(C)(=O)=O)s2)n1 [Compound 33]
11 | 91 | CS(=O)(=O)NCCNC(=O)C(=O)[C@H](Cc1ccccc1)NC(=O)[C@@H](COCc1ccccc1)NS(C)(=O)=O [Compound 35]
12 | 18 | CS(=O)(=O)N[C@H](COCc1ccccc1)C(=O)N[C@@H](Cc1ccccc1)C(=O)C(=O)NCCNS(=O)(=O)c1ccc(S(=O)(=O)c2ccccc2)s1 [Compound 37]
13 | 22 | CS(=O)(=O)N[C@H](COCc1ccccc1)C(=O)N[C@@H](Cc1ccccc1)C(=O)C(=O)NCCNS(=O)(=O)c1ccc(Br)s1 [Compound 39]
14 | 63 | CS(=O)(=O)N[C@H](COCc1ccccc1)C(=O)N[C@@H](Cc1ccccc1)C(=O)C(=O)NCCNS(=O)(=O)c1ccc(-c2ccc(N)cc2)cc1 [Compound 40]
15 | 64 | CN(C)Cc1ccc(S(=O)(=O)NCCNC(=O)C(=O)[C@H](Cc2ccccc2)NC(=O)[C@@H](COCc2ccccc2)NS(C)(=O)=O)cc1 [Compound 45]
16 | 144 | CS(=O)(=O)N[C@H](COCc1ccccc1)C(=O)N[C@@H](Cc1ccccc1)C(=O)C(=O)NCCNS(=O)(=O)CCc1ccncc1 [Compound 46]

Same assay, conditions: Table 2; 10 μM compound; values in brackets marked **

Row | Percent inhibition @ 10 μM (Calpain) | Compound
17 | (78%) | O=C(NCCNS(=O)(=O)c1ccccc1)C(=O)[C@H](Cc1ccccc1)NC(=O)[C@@H]1CCCN1S(=O)(=O)c1ccccc1 [Compound 13]
18 | (97%) | O=C(NCCNS(=O)(=O)c1ccccc1)C(=O)[C@H](Cc1ccccc1)NC(=O)[C@H](Cc1ccccc1)NS(=O)(=O)c1ccccc1 [Compound 30]

Same assay, conditions: Table 3, branched-chain α-ketoamides

Row | IC50 [nM] | Compound
19 | 43 | C[C@H](CNC(=O)C(=O)[C@H](Cc1ccccc1)NC(=O)[C@@H](COCc1ccccc1)NS(C)(=O)=O)NS(=O)(=O)c1ccccc1 [Compound 48]
20 | 32 | C[C@@H](CNS(=O)(=O)c1ccccc1)NC(=O)C(=O)[C@H](Cc1ccccc1)NC(=O)[C@@H](COCc1ccccc1)NS(C)(=O)=O [Compound 49]

Same assay, conditions: Table 3; concentration not given

Row | Calpain percent inhibition, value in brackets marked ** | Compound
21 | (100%) | CN(CCNC(=O)C(=O)[C@H](Cc1ccccc1)NC(=O)[C@@H](COCc1ccccc1)NS(C)(=O)=O)S(=O)(=O)c1ccccc1 [Compound 50]

Same assay, conditions: Table 4, α-ketoamides

Row | IC50 [nM] | Compound
22 | 21 | CS(=O)(=O)NC(C(=O)NC(Cc1ccccc1)C(=O)C(=O)NCCNS(=O)(=O)c1ccc(-c2ccccn2)s1)c1ccccc1 (mixture of isomers) [Compound 68]
23 | 80 | CS(=O)(=O)NC(C(=O)NC(Cc1ccccc1)C(=O)C(=O)NCCNS(=O)(=O)c1ccccc1)c1ccccc1 (mixture of isomers) [Compound 69]
24 | 18 | CS(=O)(=O)NC(COCc1ccccc1)C(=O)NC(Cc1ccccc1)C(=O)C(=O)NCCNS(=O)(=O)c1ccc(-c2cccc(F)c2)s1 (mixture of isomers) [Compound 72]
25 | 15 | CS(=O)(=O)NC(COCc1ccccc1)C(=O)NC(Cc1ccccc1)C(=O)C(=O)NCCNS(=O)(=O)c1ccc(-c2cccc([N+](=O)[O-])c2)s1 (mixture of isomers) [Compound 74]
26 | 36 | Cc1cccc(-c2ccc(S(=O)(=O)NCCNC(=O)C(=O)C(Cc3ccccc3)NC(=O)C(COCc3ccccc3)NS(C)(=O)=O)s2)c1 (mixture of isomers) [Compound 75]
27 | 11 | CC(=O)Nc1cccc(-c2ccc(S(=O)(=O)NCCNC(=O)C(=O)C(Cc3ccccc3)NC(=O)C(COCc3ccccc3)NS(C)(=O)=O)s2)c1 (mixture of isomers) [Compound 76]
28 | 10 | CC(=O)c1cccc(-c2ccc(S(=O)(=O)NCCNC(=O)C(=O)C(Cc3ccccc3)NC(=O)C(COCc3ccccc3)NS(C)(=O)=O)s2)c1 (mixture of isomers) [Compound 77]
29 | 48 | CS(=O)(=O)NC(COCc1ccccc1)C(=O)NC(Cc1ccccc1)C(=O)C(=O)NC1CCN(S(=O)(=O)c2ccc(CN3CCOCC3)cc2)CC1 (mixture of isomers) [Compound 78]
30 | 13 | COc1ccc(-c2ccc(S(=O)(=O)NCCNC(=O)C(=O)C(Cc3ccccc3)NC(=O)C(COCc3ccccc3)NS(C)(=O)=O)s2)cc1 (mixture of isomers) [Compound 82]
31 | 12 | CS(=O)(=O)NC(COCc1ccccc1)C(=O)NC(Cc1ccccc1)C(=O)C(=O)NCCCCCNS(=O)(=O)c1ccc(-c2ccccn2)s1 (mixture of isomers) [Compound 92]
32 | 23 | CS(=O)(=O)NC(COCc1ccccc1)C(=O)NC(Cc1ccccc1)C(=O)C(=O)NC1CCN(S(=O)(=O)c2ccc(-c3ccccn3)s2)CC1 (mixture of isomers) [Compound 107]
33 | 11 | CS(=O)(=O)NC(COCc1ccccc1)C(=O)NC(Cc1ccccc1)C(=O)C(=O)NCCNS(=O)(=O)c1ccc(-c2cccc(C#N)c2)s1 (mixture of isomers) [Compound 110]
34 | 73 | CS(=O)(=O)NC(COCc1ccccc1)C(=O)NC(Cc1ccccc1)C(=O)C(=O)NCCNS(=O)(=O)c1ccc(CN2CC=CC2)cc1 (mixture of isomers) [Compound 111]
35 | 29 | CS(=O)(=O)N[C@H](COCc1ccccc1)C(=O)N[C@@H](Cc1ccccc1)C(=O)C(=O)NCCNS(=O)(=O)c1cccc(-c2csc(N)n2)c1 [Compound 51]
36 | 5 | CS(=O)(=O)N[C@H](COCc1ccccc1)C(=O)N[C@@H](Cc1ccccc1)C(=O)C(=O)NCCNS(=O)(=O)c1ccc(-c2cccc(C=O)c2)s1 [Compound 52]
37 | 15 | CS(=O)(=O)N[C@H](COCc1ccccc1)C(=O)N[C@@H](Cc1ccccc1)C(=O)C(=O)NCCNC(=NC#N)Oc1ccccc1 [Compound 53]
38 | 12 | CN(C)Cc1cccc(-c2ccc(S(=O)(=O)NCCNC(=O)C(=O)[C@H](Cc3ccccc3)NC(=O)[C@@H](COCc3ccccc3)NS(C)(=O)=O)s2)c1 [Compound 54]
